Experiment [1] deals with U-251. The experiment in a line: Cytotoxicity against human U-251MG cells assessed as reduction in cell growth. Type of experiment: functional, cell-based.
Experiment [2] has as its system SF-268. Put plainly: Cytotoxicity against human SF-268 cells assessed as reduction in cell viability incubated for 72 hrs by MTT assay. Type of experiment: functional, cell-based. The conditions noted are these: SF-268, 72 h.
For experiment [3], the system named is U-87 MG. Put plainly: Cytotoxicity against human U-87 MG cells by resazurin dye based assay. It counts as functional, cell-based, U-87MG ATCC.
The nature of experiment [4]: Cytotoxicity against human U87MG.deltaEGFR cells by resazurin dye based assay. Type of experiment: functional, cell-based.
The nature of experiment [5]: Cytotoxicity against human GSC-3 cells assessed as reduction in cell growth incubated for 72 hrs by MTS assay. It counts as functional, cell-based. The conditions noted are these: GSC-3, 72 h.
The nature of experiment [6]: Cytotoxicity against human GSC-18 cells assessed as reduction in cell growth incubated for 72 hrs by MTS assay. It counts as functional, cell-based. To be noted: GSC18, 72 h.
Experiment [7] in a line: Cytotoxicity against rat ASK cells assessed as reduction in cell growth by SRB assay. Type of experiment: functional. To be noted: read-out: ED50 (the source's name).
For experiment [8], the system named is U-87 MG. The experiment in a line: Antiproliferative activity against human U-87-MG cells. Type of experiment: functional, cell-based, U-87MG ATCC.
Experiment [9] concerns SF-268. Put plainly: Cytotoxicity against human SF-268 cells. The conditions noted are these: read-out: ED50 (the source's name). Type of experiment: functional.
For experiment [10], the system named is T98G. The experiment in a line: Antiproliferative activity against human T98G cells assessed as reduction in cell viability measured for 24 hrs by MTT assay. It counts as functional, cell-based.
In experiment [11] the test system is U-87 MG. The experiment in a line: Antiproliferative activity against human U-87 MG cells assessed as reduction in cell viability incubated for 72 hrs by MTT assay. It counts as functional, cell-based, U-87MG ATCC.
In experiment [12] the test system is U-251. Put plainly: Antiproliferative activity against human U-251MG cells assessed as reduction in cell viability incubated for 72 hrs by MTT assay. Type of experiment: functional, cell-based. To be noted: U-251, 72 h.
Experiment [13] deals with U-118-MG. Put plainly: Antiproliferative activity against human U-118-MG cells assessed as reduction in cell viability incubated for 72 hrs by MTT assay. Type of experiment: functional, cell-based.
The test system of experiment [14] is T98G. The experiment in a line: Antiproliferative activity against human T98G cells assessed as reduction in cell viability by MTT assay. Type of experiment: functional, cell-based.
Experiment [15] concerns LN-18. The experiment in a line: Antiproliferative activity against human LN-18 cells assessed as inhibition of cell growth incubated for 72 hrs MTS assay. It counts as functional, cell-based. To be noted: LN-18, 72 h.
Experiment [16] deals with C6. The experiment in a line: Antiproliferative activity against rat C6 cells assessed as reduction in cell viability by MTT assay. It counts as functional, cell-based.
A short description of experiment [17]: Antiproliferative activity against human SHG-44 cells assessed as reduction in cell viability by MTT assay. Type of experiment: functional, cell-based.
Experiment [18] deals with LN-229. The experiment in a line: Antiproliferative activity against human LN-229 cells assessed as reduction in cell viability by MTT assay. It counts as functional, cell-based.
Experiment [19] deals with C6. The experiment in a line: Antiproliferative activity against rat C6 cells assessed as reduction in cell growth at 10 uM incubated for 24 hrs by MTT assay relative to control. It counts as functional. Further details: scale not given: the % may be the effect or the level left.
For experiment [20], the system named is U-87 MG. The experiment in a line: Cytotoxicity against human U-87 MG cells assessed as reduction in cell growth incubated for 48 hrs by MTT assay. It counts as functional, cell-based, U-87MG ATCC.
Experiment [21] concerns T98G. The experiment in a line: Growth inhibition of human T98G cells measured after 72 hrs by MTT assay. Type of experiment: functional.
The nature of experiment [22]: Growth inhibition of human U373 MG cells measured after 72 hrs by MTT assay. It counts as functional, U-373MG ATCC.
For experiment [23], the system named is Hs68. The experiment in a line: Growth inhibition of human Hs68 cells measured after 72 hrs by MTT assay. Type of experiment: functional.
Experiment [24] deals with U-87 MG. Put plainly: Growth inhibition of human U-87 MG cells measured after 72 hrs by MTT assay. It counts as functional, U-87MG ATCC.
In experiment [25] the test system is U-251. The experiment in a line: Induction of apoptosis in human U-251MG cells assessed as increase in PARP cleavage at 12.5 to 100 uM incubated for 24 hrs by Western blot analysis. Type of experiment: functional. The conditions noted are these: dose 12.5-100 µM.
The test system of experiment [26] is H4. The experiment in a line: Antiproliferative activity against human H4 cells assessed as reduction in cell viability incubated for 72 hrs by Presto-Blue cell viability assay. It counts as functional, cell-based. To be noted: H4, 72 h.
The test system of experiment [27] is U-87 MG. Put plainly: Antiproliferative activity against human U-87 MG cells assessed as reduction in cell viability incubated for 72 hrs by Presto-Blue cell viability assay. Type of experiment: functional, cell-based, U-87MG ATCC.
Experiment [28] deals with U-87 MG. The experiment in a line: Antitumor activity against human U-87 MG cells xenografted in mouse model assessed as reduction in tumor growth at 15 mg/kg, ip administered once daily for 5 days relative to control. It counts as functional, U-87MG ATCC. Further details: scale not given: the % may be the effect or the level left. The conditions noted are these: time 5 day.

The subject of experiment [29] is GAMG. Put plainly: Antiproliferative activity against human GAMG cells assessed as reduction in cell viability incubated for 48 hrs by MTS reagent based assay. It counts as functional.
The test system of experiment [30] is U-87 MG. Put plainly: Cytotoxicity against human U-87 MG cells assessed as reduction in cell viability incubated for 72 hrs by neutral red uptake assay. It counts as functional, cell-based, U-87MG ATCC.
The test system of experiment [31] is U-87 MG. Put plainly: Cytotoxicity against human U-87 MG cells assessed as reduction in cell viability in presence of Jerantinine B incubated for 72 hrs by neutral red uptake assay. It counts as functional, cell-based, U-87MG ATCC.
Experiment [32] deals with SF-295. Put plainly: Cytotoxicity against human SF-295 cells assessed as reduction in cell growth incubated for 96 hrs by MTT assay. Type of experiment: functional, cell-based. The conditions noted are these: SF-295, 96 h.
Experiment [33] concerns SF-295. The experiment in a line: Cytotoxicity against human SF-295 cells. It counts as functional, cell-based.
Experiment [34] deals with CCF-STTG1. Put plainly: Cytotoxicity against human CCF-STTG1 cells assessed as reduction in cell growth incubated for 24 hrs by MTT assay. It counts as functional, cell-based. To be noted: CCF-STTG1, 24 h.
Experiment [35] can be described thus: Cytotoxicity against human CHG-5 cells assessed as reduction in cell growth incubated for 24 hrs by MTT assay. It counts as functional, cell-based. To be noted: CHG-5, 24 h.
Experiment [36] in a line: Cytotoxicity against human SHG-44 cells assessed as reduction in cell growth incubated for 24 hrs by MTT assay. Type of experiment: functional, cell-based. To be noted: SHG-44, 24 h.
The subject of experiment [37] is U-251. The experiment in a line: Cytotoxicity against human U-251MG cells assessed as reduction in cell growth incubated for 24 hrs by MTT assay. Type of experiment: functional, cell-based. The conditions noted are these: U-251, 24 h.
For experiment [38], the system named is T98G. The experiment in a line: Cytotoxicity activity against human T98G cells assessed as reduction in cell growth measured for 48 hrs by MTS reagent based assay. Type of experiment: functional.

The structures appear in SMILES notation. In brackets after ≈: the same amount, converted by molar mass.

For the molecule `COc1cccc2c1C(=O)c1c(O)c3c(c(O)c1C2=O)C[C@@](O)(C(=O)CO)C[C@@H]3O[C@H]1C[C@H](N)[C@H](O)[C@H](C)O1` [DOXORUBICIN], the IC50 in experiment [1] was found to be 0.237 µM; in experiment [2], 0.7 µM; in experiment [3], 1.06 µM; in experiment [4] it was 6.11 µM.

For `COc1cc2c(cc1Oc1c(C=O)ccc(OC)c1OC)cc1c3c(c(OC)c(OC)c(OC)c32)CCN1C`, the IC50 worked out at 4.54 mg/L (≈ 8.51 µM) in experiment [5] and 5.37 mg/L (≈ 10.1 µM) in experiment [6]. For the same molecule, the EC50 in experiment [7] stood at 2.11 mg/L (≈ 3.95 µM).

In experiment [8], `COc1cc2c(cc1OC)-c1c3c(cc4c1[C@H](C2)N(C)CC4)OCO3` [DICENTRINE] registered a concentration for half-maximal inhibition (IC50) of 4.73 µM.

With `O=C1N[C@H]2[C@H](O)[C@H](O)[C@@H](O)[C@H](O)[C@@H]2c2cc3c(c(O)c21)OCO3` [PANCRATISTATIN], the EC50 in [9] is 0.017 mg/L (≈ 0.0523 µM).

As to `COc1ccc2cc3[n+](cc2c1OC)CCc1cc2c(cc1-3)OCO2` [BERBERINE], the IC50 turned out to be 134 mg/L in [10]; 21.8 µM in experiment [11]; 9.79 µM in [12]; 35.5 µM in experiment [13]; 120 µM in experiment [14]; 89.7 µM in experiment [15]. Also, the figures for the IC50 in experiment [16], in [17] and in experiment [18] were 50.9 µM, 0.2748 mg/L and 0.0813 mg/L, respectively. Besides, the Activity in experiment [19] worked out at 88%.

Turning to `COc1ncc(O)c2c(O)cccc12`, the IC50 in experiment [20] stood at 2.14 µM.

Regarding `O[C@@H]1CN2Cc3cc4c(cc3C13C=C[C@H](O)C[C@@H]23)OCO4` (stereo not given in full), the GI50 in [21] came out at 9 µM; in experiment [22] it was 38 µM; in experiment [23], 11 µM; in [24], 9 µM.

As to `COc1ccc2c(c1)[nH]c1c(C)nccc12` [HARMINE], the Activity in [25] was 346%; in experiment [28] it was 16.5%. For the same molecule, the IC50 stood at 4.9 µM in [26] and 45.3 µM in [27].

Regarding `O=P1(N(CCCl)CCCl)NCCCO1` (stereo not given) [CYCLOPHOSPHAMIDE ANHYDROUS], the half-inhibitory concentration (IC50) in experiment [29] amounted to 50.9 µM.

Consider `CC(C)=CCC/C(C)=C/CC/C(C)=C/CC[C@]1(C)CCc2cc(O)cc(C)c2O1` [DELTA-TOCOTRIENOL], for which the IC50 in [30] is 3.12 mg/L (≈ 7.87 µM); in experiment [31] it was 1.83 mg/L.

Regarding `O=C1c2ccc(Br)cc2-[n+]2ccc3c([nH]c4ccccc43)c21`, the IC50 in [32] stood at 5.6 µM; in experiment [33] it was 3.9 µM.

`COC(=O)N1CCc2cc3c(c4c2[C@@H]1Cc1ccc(OC)c(OC)c1-4)OCO3`: the IC50 in experiment [34] was determined as 9.2 µM; in experiment [35], 9.7 µM; in experiment [36], 11.3 µM; in experiment [37], 11.3 µM.

On to `CC[C@]1(O)C[C@H]2CN(CCc3c([nH]c4ccccc34)[C@@](C(=O)OC)(c3cc4c(cc3OC)N(C=O)[C@H]3[C@@](O)(C(=O)OC)[C@H](OC(C)=O)[C@]5(CC)C=CCN6CC[C@]43[C@@H]65)C2)C1` [VINCRISTINE], for which the IC50 in experiment [29] was found to be 30.4 µM.

Consider `Oc1cc2cccc(O)c2cn1`, for which the IC50 in [20] came out at 3.46 µM.

As for `C=CC(C)(C)n1cc(Cc2cn(C(C)(C)C=C)c3ccccc23)c2ccccc21`, the IC50 in experiment [38] came out at 18 mg/L (≈ 47.1 µM).

The values are drawn from ChEMBL document CHEMBL6115010, “Targeting glioma with heteroaromatic alkaloids: A review of potential therapeutics” (Bioorg Med Chem, 2025).
